Measurements published in US20260028337A1, “COMPOUND FOR INHIBITING IRAK4 ACTIVITY AND USE THEREOF” (SHENZHEN ZHONGGE BIOLOGICAL TECHNOLOGY CO., LTD., priority 2022, published 2026).
Counter-ions that a name gives are not always drawn.

Target: IRAK4 kinase (Homo sapiens (Human), UniProt Q9NWZ3)
Test: IRAK4 Kinase Inhibition Assay (Cisbio HTRF KinEASE-STK S1 kit)
Type: biochemical
Conditions: IRAK4 kinase protein 10 nM, ATP 200 μM, STK Substrate 1-biotin 1 μM, 37° C. 2 h, read-out: IC50 (nM), IRAK4 kinase inhibitory activity
Procedure: Test Example 1. IRAK4 Kinase Inhibition Assay
In this assay, Cisbio HTRF KinEASE-STK SI kit (62S 1 PEB) was used, in which assay/detection buffer, STK Substrate 1-biotin, Streptavidin-XL665, STK Antibody-Cryptate were contained.
After adding compound/DMSO to a 384-well plate (PerkinElmer 6008280) using Echo 665, 5 μL of 2-fold reaction concentration of IRAK4 kinase protein (final concentration: 10 nM) dissolved with assay buffer [1 volume of 5× kinase buffer+20 mM magnesium chloride (Sigma) solution+1 mM DTT (Alfa Aesar) solution+4 volumes deionized water] was added, followed by sealing the shallow well plate, shaking and then centrifuging at 1000 rpm for 1 min, and incubating at room temperature for 5 min; then 5 μL of 2-fold reaction concentration of a 1:1 mixture of STK Substrate 1-biotin (final concentration: 1 μM) and ATP (Sigma A1852) (final concentration: 200 μM) formulated with assay buffer was added, followed by sealing the shallow well plate, shaking and then centrifuging at 1000 rpm for 1 min, and incubating at 37° C. for 2 h, and then 10 μL of a 1:1 mixture of Streptavidin-XL665 (final concentration: 62.5 nM) and STK-antibody-cryptate dissolved with detection buffer was added, followed by sealing the shallow well plate, shaking and then centrifuging at 1000 rpm for 1 min, and incubating at room temperature for 1 h, and thereafter reading the value at the wavelength of 620 nm/665 nm using a microplate reader. The data were analyzed using Prism 9.3 software, and the IC50 value of IRAK4 kinase inhibition was fitted using a four parameter Logistic equation.

Sequence of IRAK4 kinase (Q9NWZ3 whole entry): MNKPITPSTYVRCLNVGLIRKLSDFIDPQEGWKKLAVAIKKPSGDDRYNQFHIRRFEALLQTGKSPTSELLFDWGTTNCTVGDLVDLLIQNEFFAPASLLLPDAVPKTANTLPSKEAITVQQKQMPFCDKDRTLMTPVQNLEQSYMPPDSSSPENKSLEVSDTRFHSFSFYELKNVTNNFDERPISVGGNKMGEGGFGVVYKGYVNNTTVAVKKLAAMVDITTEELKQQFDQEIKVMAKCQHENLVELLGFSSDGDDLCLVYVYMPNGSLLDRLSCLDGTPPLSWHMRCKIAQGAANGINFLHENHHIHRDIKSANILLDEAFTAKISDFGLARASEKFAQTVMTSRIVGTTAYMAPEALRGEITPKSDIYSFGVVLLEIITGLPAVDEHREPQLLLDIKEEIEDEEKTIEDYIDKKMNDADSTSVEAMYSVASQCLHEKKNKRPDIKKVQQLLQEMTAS

| IC50 | Structure (SMILES) |
| --- | --- |
| 100 to 1000 nM | FC(F)c1nn(C2CCCCC2)cc1-n1cc(-c2cnn3ccc(N4C[C@H]5C[C@@H]4CO5)nc23)nn1 [Compound 1A, (1R,4R)-5-(3-(1-(1-cyclohexyl-3-(difluoromethyl)-1H-pyrazol-4-yl)-1H-1,2,3-triazol-4-yl]pyrazolo[1,5-a]pyrimidin-5-yl)-2-oxa-5-azabicyclo[2.2.1]heptane] |
| 100 to 1000 nM | N#Cc1cnc2c(-c3cn(-c4cn(C5CCCCC5)nc4C(F)F)nn3)cnn2c1 [Compound 3A, 3-(1-(1-cyclohexyl-3-(difluoromethyl)-1H-pyrazol-4-yl)-1H-1,2,3-triazol-4-yl) pyrazolo[1,5-a]pyrimidine-6-carbonitrile] |
| < 100 nM | FC(F)c1nn(C2CCCCC2)cc1-n1cc(-c2cnn3ccc(N4CCOCC4)nc23)nn1 [Compound 4A, 4-(3-(1-(1-cyclohexyl-3-(difluoromethyl)-1H-pyrazol-4-yl)-1H-1,2,3-triazol-4-yl)pyrazolo[1,5-a]pyrimidin-5-yl) morpholine] |
| 1000 to 5000 nM | N#Cc1cnc2c(ccn2-c2cn(-c3cn(C4CCCCC4)nc3C(F)F)nn2)c1 [Compound 43A, 1-(1-(1-cyclohexyl-3-(difluoromethyl)-1H-pyrazol-4-yl)-1H-1,2,3-triazol-4-yl]-1H-pyrrolo[2,3-b]pyridine-5-carbonitrile] |
| 1000 to 5000 nM | FC(F)c1nn(C2CCCCC2)cc1-n1cc(-n2ccc3ccc(N4CCOCC4)nc32)nn1 [Compound 45A] |
| 1000 to 5000 nM | Cn1cc(-n2cc(-c3cnn4ccc(N5C[C@H]6C[C@@H]5CO6)nc34)nn2)c(C(F)F)n1 [Compound 46A] |
| 1000 to 5000 nM | FC(F)c1nn(C2CCCCC2)cc1-n1cc(-c2cnn3cccnc23)nn1 [Compound 56A, 3-(1-(1-cyclohexyl-3-(difluoromethyl)-1H-pyrazol-4-yl)-1H-1,2,3-triazol-4-yl]pyrazolo[1,5-a]pyrimidine] |
| < 100 nM | NC(=O)c1cnn2c(-c3cn(-c4cn(C5CCCCC5)nc4C(F)F)nn3)ccc2c1 [Compound 60A, 7-(1-(1-cyclohexyl-3-(difluoromethyl)-1H-pyrazol-4-yl)-1H-1,2,3-triazol-4-yl) pyrrolo[1,2-b]pyridazine-3-formamide] |
| 100 to 1000 nM | O=C(O)c1cnn2c(-c3cn(-c4cn(C5CCCCC5)nc4C(F)F)nn3)ccc2c1 [Compound 61A, 7-(1-(1-cyclohexyl-3-(difluoromethyl)-1H-pyrazol-4-yl)-1H-1,2,3-triazol-4-yl]pyrrolo[1,2-b]pyridazine-3-carboxylic acid] |
| 1000 to 5000 nM | O=C(c1cnn2c(-c3cn(-c4cn(C5CCCCC5)nc4C(F)F)nn3)ccc2c1)N1CCNCC1 [Compound 64A, (7-(1-(1-cyclohexyl-3-(difluoromethyl)-1H-pyrazol-4-yl)-1H-1,2,3-triazol-4-yl]pyrrolo[1,2-b]pyridazin-3-yl) (piperazin-1-yl) methanone] |
| 100 to 1000 nM | NC(=O)c1cnc2c(ccn2-c2cn(-c3cn(C4CCCCC4)nc3C(F)F)nn2)c1 [Compound 65A, 1-(1-(1-cyclohexyl-3-(difluoromethyl)-1H-pyrazol-4-yl)-1H-1,2,3-triazol-4-yl)-1H-pyrrolo[2,3-b]pyridine-5-formamide] |
| 1000 to 5000 nM | O=C(O)c1cnc2c(ccn2-c2cn(-c3cn(C4CCCCC4)nc3C(F)F)nn2)c1 [Compound 66A, 1-(1-(1-cyclohexyl-3-(difluoromethyl)-1H-pyrazol-4-yl)-1H-1,2,3-triazol-4-yl)-1H-pyrrolo[2,3-b]pyridine-5-carboxylic acid] |
| > 5000 nM | O=C(NC1CCNC1)c1cnn2c(-c3cn(-c4cn(C5CCCCC5)nc4C(F)F)nn3)ccc2c1 (stereo not shown) [Compound 67A, 7-(1-(1-cyclohexyl-3-(difluoromethyl)-1H-pyrazol-4-yl)-1H-1,2,3-triazol-4-yl]-N-(pyrrolidin-3-yl)pyrrolo[1,2-b]pyridazine-3-formamide] |
| 1000 to 5000 nM | O=C(NC1CNCC1(F)F)c1cnn2c(-c3cn(-c4cn(C5CCCCC5)nc4C(F)F)nn3)ccc2c1 (stereo not shown) [Compound 68A, 7-(1-(1-cyclohexyl-3-(difluoromethyl)-1H-pyrazol-4-yl)-1H-1,2,3-triazol-4-yl]-N-(4,4-difluoropyrrolidin-3-yl)pyrrolo[1,2-b]pyridazine-3-formamide] |
| 100 to 1000 nM | FC(F)c1nn(C2CCNCC2)cc1-n1cc(-c2cnn3ccc(N4CCOCC4)nc23)nn1 [Compound 69A, 4-(3-(1-(3-(difluoromethyl)-1-(piperidin-4-yl)-1H-pyrazol-4-yl)-1,2,3-triazol-4-yl]pyrazolo[1,5-a]pyrimidin-5-yl) morpholine] |
| < 100 nM | C[C@@H]1C[C@@H](n2cc(-n3cc(-c4cnn5ccc(N6CCOCC6)nc45)nn3)c(C(F)F)n2)CCN1 [Compound 72A] |
| 100 to 1000 nM | C[C@@H]1C[C@H](n2cc(-n3cc(-c4cnn5ccc(N6CCOCC6)nc45)nn3)c(C(F)F)n2)CCN1 [Compound 73A] |
| 100 to 1000 nM | C[C@H]1CC(n2cc(-n3cc(-c4cnn5ccc(N6CCOCC6)nc45)nn3)c(C(F)F)n2)CCN1 (stereo partly drawn) [Compound 79A, 4-(3-(1-(3-(difluoromethyl)-1-((2S)-2-methylpiperidin-4-yl)-1H-pyrazol-4-yl)-1,2,3-triazol-4-yl)pyrazolo[1,5-a]pyrimidin-5-yl) morpholine] |
| 100 to 1000 nM | C[C@@H]1CC(n2cc(-n3cc(-c4cnn5ccc(N6CCOCC6)nc45)nn3)c(C(F)F)n2)CCN1 (stereo partly drawn) [Compound 80A, 4-(3-(3-difluoromethyl)-1-(2R)-2-methylpiperidin-4-yl)-1H-pyrazol-4-yl)-1H-1,2,3-triazol-4-yl)pyrazolo[1,5-a]pyrimidin-5-yl) morpholine hydrochloride] |
| 100 to 1000 nM | C[C@H]1COCCN1c1ccn2ncc(-c3cn(-c4cn(C5CCCCC5)nc4C(F)F)nn3)c2n1 [Compound 82A, (S)-4-(3-(1-(1-cyclohexyl-3-(difluoromethyl)-1H-pyrazol-4-yl)-1H-1,2,3-triazol-4-yl]pyrazolo[1,5-a]pyrimidin-5-yl)-3-methylmorpholine] |
| 100 to 1000 nM | C[C@H]1CN(c2ccn3ncc(-c4cn(-c5cn(C6CCCCC6)nc5C(F)F)nn4)c3n2)CCO1 [Compound 83A, (2S)-4-(3-{1-[1-cyclohexyl-3-(difluoromethyl)-1H-pyrazol-4-yl]-1H-1,2,3-triazol-4-yl}pyrazolo[1,5-a]pyrimidin-5-yl)-2-methylmorpholine] |
| 100 to 1000 nM | NC(=O)c1cnn2c(-c3cn(-c4cn(C5CCNCC5)nc4C(F)F)nn3)ccc2c1 [Compound 84A, 7-(1-(3-(difluoromethyl)-1-(piperidin-4-yl)-1H-pyrazol-4-yl)-1H-1,2,3-triazol-4-yl)pyrrolo[1,2-b]pyridazine-3-formamide] |
| < 100 nM | CC1(C)CC(n2cc(-n3cc(-c4cnn5ccc(N6CCOCC6)nc45)nn3)c(C(F)F)n2)CCN1 (stereo not shown) [Compound 85A, 4-(3-(1-(3-(difluoromethyl)-1-(2,2-dimethylpiperidin-4-yl)-1H-pyrazol-4-yl)-1,2,3-triazol-4-yl]pyrazolo[1,5-a]pyrimidin-5-yl) morpholine] |
| 100 to 1000 nM | CC1(C)C[C@H](n2cc(-n3cc(-c4cnn5ccc(N6CCOCC6)nc45)nn3)c(C(F)F)n2)CCN1 [Compound 86A, (R)-4-(3-(1-(3-(difluoromethyl)-1-(2,2-dimethylpiperidin-4-yl)-1H-pyrazol-4-yl)-1,2,3-triazol-4-yl]pyrazolo[1,5-a]pyrimidin-5-yl) morpholine] |
| 100 to 1000 nM | CC1(C)C[C@@H](n2cc(-n3cc(-c4cnn5ccc(N6CCOCC6)nc45)nn3)c(C(F)F)n2)CCN1 [Compound 87A, (S)-4-(3-(1-(3-(difluoromethyl)-1-(2,2-dimethylpiperidin-4-yl)-1H-pyrazol-4-yl)-1,2,3-triazol-4-yl]pyrazolo[1,5-a]pyrimidin-5-yl) morpholine] |
| 100 to 1000 nM | CC1(C)COCCN1c1ccn2ncc(-c3cn(-c4cn([C@H]5CC[C@H](CO)CC5)nc4C(F)F)nn3)c2n1 [Compound 88A, ((1r,4r)-4-(3-(difluoromethyl)-4-(4-(5-(3,3-dimethylmorpholinyl)pyrazolo[1,5-a]pyrimidin-3-yl)-1H-1,2,3-triazol-1-yl)-1H-pyrazol-1-yl)cyclohexyl)methanol] |
| 100 to 1000 nM | CC1(C)CN(c2ccn3ncc(-c4cn(-c5cn(C6CCC(CO)CC6)nc5C(F)F)nn4)c3n2)CCO1 (stereo not shown) [Compound 89A, ((1r,4r)-4-(3-(difluoromethyl)-4-(4-(5-(2,2-dimethylmorpholinyl)pyrazolo[1,5-a]pyrimidin-3-yl)-1H-1,2,3-triazol-1-yl)-1H-pyrazol-1-ylcyclohexyl)methanol] |
| 100 to 1000 nM | OC[C@H]1CC[C@H](n2cc(-n3cc(-c4cnn5ccc(N6CC7(COC7)C6)nc45)nn3)c(C(F)F)n2)CC1 [Compound 90A, ((1r, 4r)-4-(4-(4-(5-(2-oxa-6-azaspiro[3.3]heptan-6-yl)pyrazolo[1,5-a]pyrimidin-3-yl)-1H-1,2,3-triazol-1-yl)-3-(difluoromethyl)-1H-pyrazol-1-yl]cyclohexyl)methanol] |
